According to patent US20070042026A1, “Prophylactic and therapeutic treatment of topical and transdermal drug-induced skin reactions” (priority 2005, published 2007):
pEC50: −log10 of the molar value. Blank lines part the entries; values can stand above or below the molecule they belong to.

Columns and labels:
[1] = Rosmarinic acid 5%; cited from earlier work
[2] = DPPH* free-radical scavenging anti-oxidant assay; settings: absorbance at 595 nm, after 30 minutes of incubation at 25° C.; read-out: molar activity (EC50, concentration that lowers the zero time optical absorbance of DPPH by 50 percent)
Procedure: Solutions of test compounds were assayed for their antioxidant activity by the free-radical scavenging method that uses diphenylpicryl hydrazine (DPPH*) reagent as described previously (Bonina et al, 2003). In order to standardize the activity, we defined for each compound, an EC50 value as the concentration that lowers the zero time optical absorbance of DPPH at 595 nm by 50 percent measured after 30 minutes of incubation at 25° C.

mouse skin [3] = settings: cited from earlier work; for contact sensitization in a mouse skin model (mast cell degranulating agents): in vivo
[4] = system: volar arm skin of volunteers; assay: 24-hour occlusive patch (Finn chamber) anti-irritant test with 0.5% benzalkonium chloride carrier gels; assay type: in vivo, human
Procedure: Occlusive patch testing was conducted on extracts prepared by starch gel encapsulation in a oil-in water emulsion system previously described (Wille, 2003).
Anti-irritant assays: All carrier system gels were prepared with 0.5% benzalkonium chloride, a mild irritant. To test for anti-irritancy, the irritant-containing carrier gels were also loaded with the test botanical extracts (experimentals). The control and test gels were deposited (100 microliters) on 10 mm square circular filter paper discs and placed in side of Finn chambers (20 mm square), which were then applied to the volar arm skin of volunteers. The chambers were affixed to skin with non-allergic adhesive tape and left in place for 24 hours. Upon termination of the treatments, the chambers were removed and the skin gently wiped clean with moistened cotton swabs. The exposed skin was first examined for signs of erythema (redness) and induration (swelling), and skin sites photographed. The exposed skin sites were probed for skin capacitance (skin moisture levels) using a Corneometer instrument (Courage & Khazaka, Koln, Germany).

mouse skin [5] = settings: cited from earlier work
HaCat keratinocytes = assay: Retinoid-stimulated autocrine clonal growth of HaCat keratinocytes (biochemical assay for anti-irritant activity); assay type: cell-based, human; settings: 10 μM, 48 hours after treatment, retinoid-stimulated autocrine growth conditions
Procedure: Since retinoids irritate skin leading to epidermal hyperplasia, we have employed an in vitro cell culture method to detect antioxidants that act to inhibit retinoid-stimulated autocrine growth of human keratinocytes.
Method: An immortalized line of human epidermal kertatinocytes, HaCat keratinocytes, can be cultured in a serum-free culture medium. Sterile Petri dishes (35 mm^2) are seeded at 5,000 cells per cm^2 and placed in a humidifed CO2 incubator at 37° C. for 3-5 days or until the culture reaches about 30% confluent monolayer growth. The dishes are washed once with ice-cold serum-free media lacking EGF and insulin, and refed 2.5 ml of serum-free culture medium containing 5 ug/ml insulin and retinyl acetate (RA, 3×10^−8 M). Duplicate control dishes are fixed and stained with 0.2% crystal violet to record the amount of clonal growth prior to refeeding with fresh RA-containing medium. Test dishes refed RA and insulin are split into three groups in duplicate. Group A is refed on the RA plus insulin medium. Group B is refed RA plus insulin medium and a […] inhibitor (PD 153035), and Group C is refed medium containing RA plus insulin and from 0.1 to 5% of a hydroalcoholic botanical extract. All dishes are adjusted to have the same final concentration of alcohol (1%). All dishes are placed back in the incubator for 2 and 4 days. They are fixed and stained with 0.2% crystal violet. […]

SMILES: O=C(/C=C/c1ccc(O)c(O)c1)O[C@H](Cc1ccc(O)c(O)c1)C(=O)O [Rosmarinic acid]
reduction of the irritating action of alpha-hydroxy acids (lactic and glycolic acids) [1]: over three-fold

pEC50 [2]: 4.59
SMILES: O=C1O[C@H]([C@@H](O)CO)C(O)=C1O [ascorbic acid]

SMILES: O=C(O)/C=C\c1c[nH]cn1 [cis-urocanic acid]
contact sensitization in a mouse skin model (mast cell degranulating agents) (mouse skin [3]): prevent contact sensitization

pEC50 [2]: 4.52
SMILES: CCCCCCCCCCCCCCCC(=O)OC[C@H](O)[C@H]1OC(=O)C(O)=C1O [ascorbyl palmitate]

pEC50 [2]: 4.34
SMILES: Cc1c(C)c2c(c(C)c1O)CC[C@@](C)(CCC[C@H](C)CCC[C@H](C)CCCC(C)C)O2 [vitamin E, alpha-tocopherol]

SMILES: O=C(O)c1cc(O)c(O)c(O)c1 [gallic acid, 3,4,5-trihydroxybenzoic acid]
effect on benzalkonium chloride induced skin irritation ([4]; 24 hour occlusion): anti-irritant effect
irritancy to skin ([4]; gallic acid alone, 24 hours of occlusion): not irritating to skin
skin hydration profile ([4]; gallic acid alone, after 24 hours of occlusion): does not alter skin hydration profile

SMILES: O=C(O)COc1ccccc1 [Phenoxyacetic acid]
contact sensitization due to para-phenylenediamine (mouse skin [3]; application of the hair dye to mouse skin): prevent contact sensitization
skin irritation due to a panel of known skin irritants including sodium lauryl sulfate (mouse skin [5]; mouse, in vivo): block skin irritation

SMILES: COc1ccc(CCN(C)CCCC(C#N)(c2ccc(OC)c(OC)c2)C(C)C)cc1OC (stereo not shown) [Verapamil]
minimizing contact sensitization due to Nadolol (mouse skin [3]; topical application of Nadolol to mouse skin): effective

SMILES: COc1cc(CNC(=O)CCCC/C=C/C(C)C)ccc1O [capsaicin]
contact sensitization in a mouse skin model (mast cell degranulating agents) (mouse skin [3]): prevent contact sensitization

SMILES: O.O.O=c1c(O)c(-c2ccc(O)c(O)c2)oc2cc(O)cc(O)c12 [quercetin dihydrate]
pEC50 [2]: 4.07
clonal growth relative to the untreated control (HaCat keratinocytes): completely inhibited

SMILES: C=C(CC)C(=O)c1ccc(OCC(=O)O)c(Cl)c1Cl [Ethacrynic acid]
prevention of contact sensitization due to Clonidine, Chlorpheniramine, Albuterol and Nadolol (mouse skin [3]; delivery of the sensitizing drugs to mouse skin): effective
prevention of skin irritation due to 2,4-dinitro-chlorobenzene, arachidonic acid, phorbol myristic acid, trans-retinoic acid and lactic acid (mouse skin [5]; topical application to mouse): effective
